Where a SMILES comes first, the peptide text is derived from it. [ ]: non-standard residue; d: D form.
Assays:
[1] = ThT fluorescence, self-assembly of peptide inhibitors without Tau; type: physicochemical; conditions: ThT end-point 216 h (9 days); 20 µM peptide, PBS, 1 mM DTT, 20 µM ThT, 10 µM heparin, pH 7.4; n=3
Description: (§1) Fluorescence was measured (λex = 442 nm, λem = 483 nm), and data were normalized. […] The addition of inhibitor to the growth phase was controlled by adding an equivalent volume of buffer alone.
Experiments were conducted in triplicate and error bars were reported as standard deviation. Statistical analysis: p > 0.05, *p ≤ 0.05, **p ≤ 0.01, ***p ≤ 0.001.

[2] = biological target: T1, VQIVYK (Homo sapiens, UniProt P10636); experiment: ThT fluorescence, aggregation of VQIVYK peptide; type: biochemical; conditions: ThT end-point 24 h; 20 µM VQIVYK, 20 µM RI‐AG03 (equimolar), 5 µM heparin, pH 7.4; alone or combined with VQIINK
T1 construct: ^306VQIVYK^311 hexapeptide (motif found in all six isoforms)
Description: as §1
FIGURE 3 Lead peptide RI‐AG03 dose‐response and target specificity. […] (C) Concentration‐dependent inhibition of by Tau^Δ1‐250 by RI‐AG03. […] (E) Concentration‐dependent inhibition of by Tau^2N4R by RI‐AG03. […] (F) log10 scatter graph of Tau^2N4R inhibition by RI‐AG03 employing a curve fitting algorithm to calculate the IC50 at 5 µM. Experiments were conducted in triplicate and error bars were reported as standard deviation. One factor repeated measures ANOVA + Tukey post hoc statistical analysis: p > 0.05, *p ≤ 0.05, **p ≤ 0.01, ***p ≤ 0.001.

[3] = tested on: Tau repeat domain (RD) with the P301S mutation fused to mCer and mClo, HEK293 biosensor cells; experiment: Tau fibril seeding in FRET Tau biosensor cells; type: cell-based, human
Description: Tau biosensor cells culture: RD P301S Tau biosensor cells have been previously described,[45] and in this case v2L cells were used. Cells were cultured in 10 cm dishes containing Dulbecco's Modified Eagle's Medium (DMEM) (Gibco) enriched with 10% FBS (HyClone), 1% penicillin/streptomycin (Gibco), and 1% GlutaMAX (Gibco) at 37°C with 5% CO2 in a humidified incubator.
5 µM of tau fibrils (monomer equivalent) were incubated in PBS with peptide RI‐AG03 or scramble (0–500 µM) at 300 rpm agitation at 4°C for 16 h. The reaction was stopped by flash freezing in liquid nitrogen and stored at –20°C. Tau biosensor cells were plated at a density of 30,000 cells in 120 µL of media per well in a 96‐well plate. After 18 h, using Lipofectamine 2000 cells were transduced with 10 nM of treated fibrils that had been briefly sonicated for 30 s at 65 Amp (QSonica). Lipofectamine complexes were formed in 30 µL consisting of 14.17 µL Opti‐MEM (Gibco), 15 µL of treated fibrils diluted in PBS, and 0.83 µL lipofectamine 2000 (Invitrogen), bringing the total volume to 150 µL. […] Aggregates in Tau biosensors (10,000 minimum) were quantified by FRET flow cytometry in a LSRFortessa SORP (BD Biosciences). To detect the cerulean signal, cells were excited with a 405 nm laser, and fluorescence was captured at […]. For clover signal, cells were excited with a 488 nm laser and fluorescence was detected at 525/50 nm. Flow cytometry data were analyzed using a gating strategy previously described.[45], [47] The percentage of cells with positive FRET signal were quantified. Each condition was analyzed in quadruplicate. […]
To test RI‐AG03 efficacy in mammalian cells, we utilized a fluorescence resonance energy transfer (FRET) biosensor HEK293 cell line that stably expresses the Tau repeat domain (RD) with the P301S mutation fused to mCer and mClo. These cells[45] or prior generations[71] have been used extensively to quantify Tau seeding activity and measure intracellular aggregation.[71] […] Seeded aggregation was quantified by the percentage of FRET positivity.

[4] = biological target: T2, Tau^Δ1‐250 (Homo sapiens, UniProt P10636); experiment: Circular dichroism of Tau^Δ1‐250 aggregation; type: biochemical; conditions: 20 µM Tau^Δ1‐250, 20 µM RI‐AG03, aggregated 5 h; CD 180–260 nm
T2 construct: Tau^Δ1‐250 (an aggregate prone truncated version of full‐length Tau); made in house; host or cells: E. coli BL21(DE3)
Description: Circular dichroism (CD): CD spectra were obtained using a Chirascan plus qCD spectrometer between 180 and 260 nm with a bandwidth of 1 nm and a path length of 2 mm.
FIGURE 4 Lead peptide RI‐AG03 suppresses Tau β‐sheet content and forms of off‐pathway structures. […] 20 µM RI‐AG03 was added after 0, 24, and 72 h, of Tau aggregation (hatched gray bars), or not at all (solid gray bar representing end‐point aggregation of Tau^2N4R at 9 days). Note that Tau^2N4R aggregation plateaued at ∼72 h. […] One factor repeated measures ANOVA + Tukey post hoc statistical analysis: p > 0.05, *p ≤ 0.05, **p ≤ 0.01, ***p ≤ 0.001. (C) Negative stain TEM images using a Joel JEM‐1010 after the aggregation of 20 µM Tau^Δ1‐250 for 24 h, in the absence of RI‐AG03 (left), and in the presence of 20 µM RI‐AG03 (right). (D) The area and diameter of 200 large spherical species formed in the presence of 20 µM RI‐AG03 and recorded by TEM were quantified using iTEM software. […]

T2 sequence (P10636 568-758, stated change not applied): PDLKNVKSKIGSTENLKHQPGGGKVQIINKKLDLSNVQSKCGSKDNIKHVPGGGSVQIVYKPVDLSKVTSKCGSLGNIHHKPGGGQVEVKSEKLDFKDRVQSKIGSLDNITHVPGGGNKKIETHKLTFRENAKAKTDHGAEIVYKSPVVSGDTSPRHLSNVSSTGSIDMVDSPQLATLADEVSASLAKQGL

SMILES: CC[C@@H](C)[C@@H](NC(=O)[C@@H](CCCCNC(C)=O)NC(=O)[C@@H](Cc1ccc(O)cc1)NC(=O)[C@@H](CCCCN)NC(=O)[C@H]1CCCN1C(=O)CNC(=O)[C@@H](CCCNC(=N)N)NC(=O)[C@@H](CCCNC(=N)N)NC(=O)[C@@H](CCCNC(=N)N)NC(=O)[C@@H](CCCNC(=N)N)NC(=O)[C@@H](CCCNC(=N)N)NC(=O)[C@@H](CCCNC(=N)N)NC(=O)[C@@H](CCCNC(=N)N)NC(=O)[C@@H](CCCNC(=N)N)NC(C)=O)C(=O)N[C@H](CCC(N)=O)C(=O)N[C@@H](C(=O)NCC(=O)N[C@H](CCCNC(=N)N)C(N)=O)C(C)C [RI‐AG03] (Ac-[dR][dR][dR][dR][dR][dR][dR][dR]G[dP][dK][dY][dK](Ac)[dI][dQ][dV]G[dR]-NH2)
- self-association into β‐sheets over 216 h [1]: does not self‐associate into β‐sheets
- effect on aggregation of VQIVYK peptide [2]: dramatically reduced
- concentrations with peptide‐induced toxicity (decrease in FRET positivity) ([3]; biosensor cells, fibrils preincubated with 0–500 µM peptide, Figure 5C): above 100 µM
- aggregates (green puncta) in biosensor cells by fluorescence microscopy ([3]; preformed fibrils incubated with 30 µM peptide, compared with scramble peptide): fewer aggregates
- CD spectral changes (random coil to secondary structure incl. β‐strands) [4]: significantly suppressed
